According to paper PMC6382874, “Succinylation-dependent mitochondrial translocation of PKM2 promotes cell survival in response to nutritional stress” (Cell Death & Disease, 2019):
Where two headings read alike, the source gives them in different places.

Legend:
[1] = system: MCF7 cells; test: cell viability test, MCF7; assay type: cell-based; conditions: cell viability, 48 h, read-out: IC50 (MCF7)
Protocol: (§1) We assessed the anti-tumor effects of compound 8 by evaluation of cancer cell viability. Compound 8 reduced cell viability with an IC50 of about 5 µM in MTT reduction assays in HCT116, MCF7, and H1299 cells (Table 2). […] To determine whether cancer cell death brought about by compound 8 is PKM2 dependent, PKM2 was knocked down in HCT116 cells using two different shRNA sequences that specifically targeted exon 10 without interfering with PKM1 expression. Compound 8 is an inhibitor which causes a loss of function of PKM2. If PKM2 is a specially targeted by compound 8, its knockdown should render cells more vulnerable to compound 8-mediated PKM2 inhibition since shRNA and compound 8 work synergistically by reducing the intracellular drug target concentration.
(§2) Cells were seeded in 96-well plates at 5000 cells/well in DMEM media overnight. Cells were treated with different concentrations of test compound for 48 h at 37 °C in 5% CO2. Cell viability was assayed with the MTS assay (Promega) and trypan blue staining according to the manufacturer’s instructions.

[2] = system: H1299 cells; test: cell viability test, H1299; assay type: cell-based; conditions: cell viability, 48 h, read-out: IC50 (H1299)
Protocol: as §1, §2

[3] = system: PKM2 knockdown HCT116 cells; test: annexin v stain apoptosis assay in PKM2 knockdown cells; assay type: cell-based, human; conditions: 20 µM, 12 h
Excerpt: (§3) Fig. 5 Identification and characterization of PKM2 inhibitors. a PKM2 inhibitors. […] It prints only the data set name 'Data: pkm2_NDH', so the substance label is left empty. / Panel b, N: small print, 0.941 ±0.0712, digits uncertain / Panel b, K: small print, 8.63E4 ±3.63E4, the digits 8, 6 and 3 are uncertain / Panel b, ΔH: small print, -5962 ±675.9, the digits 5, 9 and 6 are uncertain / Panel b, ΔS: small print, 2.59, the digits 5 and 9 are uncertain
as §1
Two shRNAs with PKM2 specific exon 10 sequence knockdown were used (5'-[…]-3'; 5'-[…]-3'), and a shRNA with no effect on PKM2 levels was employed as a control (5'-[…]-3). […]

[4] = system: PKM2 mitochondrial translocation; test: PKM2 mitochondrial translocation (fractionation, western blot) in HCT116 cells; assay type: cell-based, human; conditions: 20 μM, glucose starvation, HCT116
Protocol: (§4) Fig. 6 Compound 8 blocks PKM2 mitochondrial translocation under nutritional stress and inhibits tumor growth in vivo. a Compound 8 blocks glucose starvation induced PKM2 mitochondrial translocation. Isolation of mitochondria and immunoblot of PKM2, tubulin and Tom 40 were carried out with or without compound 8 treatment. b Compound 8 disrupts interaction of PKM2 and VDAC3. HCT116 cells were transfected with HA-tagged PKM2, cells were harvested and subjected to stag pull down after 8 h 20 µM compound 8 treatment. c Compound 8 induces VDAC3 for degradation. cells were harvested and evaluated VDAC3 protein levels after 8 h 10 or 20 µM compound 8 treatment. d, e Compound 8 caused a decrease in the rate of NADH oxidation. After 8 h of treatment with 20 µM compound 8, HCT116 cells mitochondria were isolated for NADH oxidation assays. NAD/NADH ratios in HCT116 cell lysates were evaluated by LC–MS. f Compound 8 inhibited ATP production in HCT116 cells. g The tumor volume (n = 7) of HCT116 xenografts from mice with intraperitoneal injection of compound 8 and vehicle control
HCT116 cells were harvested and washed two times with cold PBS. Cells were then homogenized in a buffer (220 mM mannitol, 70 mM sucrose, 2 mM EGTA, 5 mM MOPS-Tris pH 7.4, 2 mM Taurine, 0.2% BSA). The homogenate was spun for 5 min at 800g.The supernatant containing the cytoplasmic and mitochondrial fractions were transferred to a fresh tube and spun for 5 min at 12,000g. The pellet contained the mitochondrial fraction and the supernatant contained the cytoplasmic fraction.
Cells were lysed in buffer containing 50 mM Tris pH8.0, 2 mM EDTA, 150 mM NaCl, 0.5% Nonidet P-40, 10% glycerol and protease inhibitor PMSF. Western blot analysis was carried out based on standard methods. The following commercial antibodies were used as probes: anti-Flag antibody (Sigma, F3165), anti-HA antibody (Sigma, H3663), anti-α-Tubulin (EasyBio, BE0026–100), anti-PKM2 (RuiYingBio, RLT3777), anti-TOM 40 (Santa Cruz sc-365467), anti-succinyllysine antibody (PTM BIO PTM-901), anti-GAPDH (SanJian).

[5] = system: outer mitochondrial membrane permeability; test: NADH oxidation assay in mitochondria isolated from HCT116 cells; assay type: cell-based, human; conditions: 20 µM, 8 h
Protocol: as §4, with “control […]” for “control”
NADH oxidation in the mitochondria was measured by resuspending mitochondria isolated from HCT116 cells after knockdown or overexpression of PKM2, K433E, K433R, PKM1, or treatment with 20 μM compound 8 for 8 h in 25 mM NADH. Absorbance was monitored at λ = 340 nm. […]

[6] = system: HCT116 cells; test: ATP measurement, Cell Titer-Glo, HCT116 cells; assay type: cell-based, human; conditions: 10 or 20 μM, 8 h
Protocol: HCT116 cells were cultured in DMEM containing 10% FBS and seeded into six-well plates. Twenty-four hour after seeding, the medium was changed to DMEM containing 10 or 20 μM compound 8 for 8 h. ATP levels were measured using the Cell Titer-Glo Luminescent Cell Viability Assay (Promega).

[7] = molecular target: T1, PKM2 (Homo sapiens, UniProt P14618); test: pyruvate kinase activity in lysate of treated HCT116 cells; assay type: cell-based; parameters: endogenous in cells; host or cells: HCT116; conditions: 6 h treatment, Fig. 5c
Protocol: HCT116 cells were seeded overnight into 6-well plates at 1,000,000 cells/well in DMEM media. Test compounds were added for 6 h. Cells were washed two times with ice-cold phosphate-buffered saline (PBS) and lysed in lysis buffer. Lysate was analyzed for pyruvate kinase activity as described above.
Target sequence in this assay (P14618 2-531 limits assumed): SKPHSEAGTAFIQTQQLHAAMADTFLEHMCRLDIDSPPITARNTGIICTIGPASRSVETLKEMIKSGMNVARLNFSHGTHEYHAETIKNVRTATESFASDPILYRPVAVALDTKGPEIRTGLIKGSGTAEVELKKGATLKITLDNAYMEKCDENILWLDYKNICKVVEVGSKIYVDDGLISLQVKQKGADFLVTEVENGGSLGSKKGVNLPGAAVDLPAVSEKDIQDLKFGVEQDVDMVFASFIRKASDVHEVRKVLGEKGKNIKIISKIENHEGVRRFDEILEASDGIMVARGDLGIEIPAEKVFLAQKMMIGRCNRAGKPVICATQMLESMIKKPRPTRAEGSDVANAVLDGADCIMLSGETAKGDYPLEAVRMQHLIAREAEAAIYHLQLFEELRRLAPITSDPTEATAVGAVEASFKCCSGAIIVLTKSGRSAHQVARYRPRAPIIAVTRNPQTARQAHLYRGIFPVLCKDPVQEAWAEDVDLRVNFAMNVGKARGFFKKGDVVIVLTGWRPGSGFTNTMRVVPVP

[8] = molecular target: T1, PKM2; test: binding to PKM2 measured by MicroCal iTC200; parameters: His-tag (N); made in house; host or cells: Escherichia coli BL21
Excerpt: We tested modifications of target compounds for PKM2 inhibitory activity.
as §3
Target sequence in this assay (P14618 whole entry): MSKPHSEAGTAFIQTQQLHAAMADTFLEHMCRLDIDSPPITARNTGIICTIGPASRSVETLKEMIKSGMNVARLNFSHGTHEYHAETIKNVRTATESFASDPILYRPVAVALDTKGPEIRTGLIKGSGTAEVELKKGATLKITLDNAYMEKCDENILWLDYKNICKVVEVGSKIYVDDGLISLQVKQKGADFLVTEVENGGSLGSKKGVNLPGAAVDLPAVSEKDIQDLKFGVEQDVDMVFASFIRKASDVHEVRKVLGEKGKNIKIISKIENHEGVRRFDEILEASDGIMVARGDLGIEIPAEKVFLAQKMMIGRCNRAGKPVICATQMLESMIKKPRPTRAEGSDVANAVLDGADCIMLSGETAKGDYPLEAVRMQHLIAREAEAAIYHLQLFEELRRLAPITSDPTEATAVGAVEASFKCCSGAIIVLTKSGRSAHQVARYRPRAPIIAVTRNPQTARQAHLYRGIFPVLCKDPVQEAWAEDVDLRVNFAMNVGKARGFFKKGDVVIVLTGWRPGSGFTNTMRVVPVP
Human cDNA for PKM2, PKM1, and VDAC3 were separately cloned into a pET28a (+) and pGEX-4T-1 vector with an N-terminal His-tag and N-terminal GST-tag and purified from the Escherichia coli strain BL21 (Invitrogen) using Ni–agarose beads and GST agarose beads (Qiagen) as described previously. PKL was purchased from Sino Biological Inc. in China.

For `CCCN(CCC)P(N)(=O)OCC1=CC(=O)c2ccccc2C1=O` (centres unmarked) [Compound 8], the IC50 ([1]; Homo sapiens, MCF7, 48 h) was roughly 5 µM, the IC50 [1] was 5.4 ± 1.14 µM and the IC50 ([2]; Homo sapiens, NCI-H1299, 48 h) was roughly 5 µM. For the same compound, the IC50 [2] was 4.75 ± 1.15 µM, the “apoptosis of PKM2 knockdown cells” value [3] was “increased the apoptosis of PKM2 knockdown cells” and the PKM2 mitochondrial translocation [4] was “can restrain PKM2 mitochondrial translocation”. For the same compound, the “rate of NADH oxidation in purified mitochondria” value [5] was “reduced”, the “cellular ATP production” value [6] was “inhibited cellular ATP production in a concentration-dependent manner” and the “inhibition of PKM2 activity in cancer cells” value [7] was “inhibits PKM2 activity in HCT116 cells in a dose dependent manner”. For the same compound, the “inhibition of PKM2 activity in cancer cells” value ([7]; listed as compound 8) was “dose dependent” and the Kd [8] was roughly 11 µM.
